In ChEMBL document CHEMBL3885861, “Open TG-GATES”:

Organism: Rattus norvegicus
Experiment: Open TG-GATES - Regimen: Daily Repeat
Assay type: toxicity, organism-based, Sprague-Dawley
Set-up: regimen Daily Repeat, gender Male, age 6 weeks
Details: in vivo, po, route gavage; for APTT / Bas / Eos / Fbg / Hb / Ht / Lym / MCH / MCHC / MCV / Mono / Neu / PT / Plat / RBC / Ret / WBC: tissue Blood; for KIDNEY_L / KIDNEY_R / KIDNEY_TOTAL: tissue Kidney; for LIVER: tissue Liver; for A/G / ALP / ALT / AST / BUN / CRE / Ca / Cl / DBIL / GLC / IP / K / LDH / Na / PL / RALB / TBIL / TC / TG / TP / gamma-GTP: tissue Plasma
[1] = 0 mg/kg, 72 h, dose level Control, time 3 day
[2] = 0 mg/kg, […], dose level Control, time 7 day
[3] = 0 mg/kg, […], dose level Control, time 14 day
[4] = 0 mg/kg, […], dose level Control, time 28 day
[5] = 10 mg/kg, 72 h, dose level Low, time 3 day
[6] = 10 mg/kg, […], dose level Low, time 7 day
[7] = 10 mg/kg, […], dose level Low, time 14 day
[8] = 10 mg/kg, […], dose level Low, time 28 day

## CCCc1cc(=O)[nH]c(=S)[nH]1 [PROPYLTHIOURACIL]
[1]
  TERMINAL_BW: 207.9 g
  APTT: 16.3 s
  Bas: 0%
  Eos: 0.8%
  Fbg: 235 mg/dL
  Hb: 13.5 g/dL
  Ht: 40.7%
  Lym: 73.4%
  MCH: 21.7 pg
  MCHC: 33.2%
  MCV: 65.5 fL
  Mono: 8.4%
  Neu: 17.4%
  PT: 12 s
  Plat: 113.1 x10_4/uL
  RBC: 622 x10_4/ul
  Ret: 7.6%
  WBC: 141.8 x10_2/uL
  KIDNEY_L: 0.9 g
  KIDNEY_R: 1 g
  KIDNEY_TOTAL: 1.9 g
  LIVER: 10.1 g
  A/G: 1.9
  ALP: 904.6 IU/L
  ALT: 38.6 IU/L
  AST: 65.4 IU/L
  BUN: 20.6 mg/dL
  CRE: 0.5 mg/dL
  Ca: 11.5 mg/dL
  Cl: 103.4 meq/L
  DBIL: 0.022 mg/dL
  GLC: 192.8 mg/dL
  IP: 8.7 mg/dL
  K: 5 meq/L
  LDH: 90.6 IU/L
  Na: 137.4 meq/L
  PL: 160.8 mg/dL
  RALB: 3.9 g/dL
  TBIL: 0.3 mg/dL
  TC: 85.6 mg/dL
  TG: 98.8 mg/dL
  TP: 6 g/dL
  gamma-GTP: 2 IU/L
[2]
  TERMINAL_BW: 242.6 g
  APTT: 16 s
  Bas: 0%
  Eos: 0.8%
  Fbg: 232.4 mg/dL
  Hb: 13.8 g/dL
  Ht: 41%
  Lym: 77.8%
  MCH: 21.4 pg
  MCHC: 33.6%
  MCV: 63.6 fL
  Mono: 5.6%
  Neu: 15.8%
  PT: 12 s
  Plat: 105.3 x10_4/uL
  RBC: 643.8 x10_4/ul
  Ret: 6.7%
  WBC: 127.9 x10_2/uL
  KIDNEY_L: 1.1 g
  KIDNEY_R: 1.1 g
  KIDNEY_TOTAL: 2.1 g
  LIVER: 11.7 g
  A/G: 1.8
  ALP: 1082.6 IU/L
  ALT: 34.2 IU/L
  AST: 67.4 IU/L
  BUN: 20.8 mg/dL
  CRE: 0.5 mg/dL
  Ca: 11.5 mg/dL
  Cl: 106.2 meq/L
  DBIL: 0.016 mg/dL
  GLC: 180 mg/dL
  IP: 8 mg/dL
  K: 5.2 meq/L
  LDH: 95.6 IU/L
  Na: 139 meq/L
  PL: 158.4 mg/dL
  RALB: 3.9 g/dL
  TBIL: 0.4 mg/dL
  TC: 77 mg/dL
  TG: 127 mg/dL
  TP: 6.1 g/dL
  gamma-GTP: 1.8 IU/L
[3]
  TERMINAL_BW: 275 g
  APTT: 16.2 s
  Bas: 0%
  Eos: 0.2%
  Fbg: 220.4 mg/dL
  Hb: 14.7 g/dL
  Ht: 43.9%
  Lym: 80.8%
  MCH: 21 pg
  MCHC: 33.4%
  MCV: 63 fL
  Mono: 4%
  Neu: 15%
  PT: 12.1 s
  Plat: 105.2 x10_4/uL
  RBC: 697.6 x10_4/ul
  Ret: 5%
  WBC: 125.5 x10_2/uL
  KIDNEY_L: 1.1 g
  KIDNEY_R: 1.1 g
  KIDNEY_TOTAL: 2.2 g
  LIVER: 12.2 g
  A/G: 1.8
  ALP: 719.8 IU/L
  ALT: 30 IU/L
  AST: 59.4 IU/L
  BUN: 18.8 mg/dL
  CRE: 0.7 mg/dL
  Ca: 11 mg/dL
  Cl: 107.4 meq/L
  DBIL: 0.006 mg/dL
  GLC: 183.6 mg/dL
  IP: 8.1 mg/dL
  K: 4.4 meq/L
  LDH: 87.4 IU/L
  Na: 140.8 meq/L
  PL: 150.4 mg/dL
  RALB: 3.9 g/dL
  TBIL: 0.3 mg/dL
  TC: 69.4 mg/dL
  TG: 111.2 mg/dL
  TP: 6.1 g/dL
  gamma-GTP: 0.8 IU/L
[4]
  TERMINAL_BW: 364.4 g
  APTT: 16.6 s
  Bas: 0%
  Eos: 0.6%
  Fbg: 223.8 mg/dL
  Hb: 15.3 g/dL
  Ht: 45.9%
  Lym: 86.8%
  MCH: 19.5 pg
  MCHC: 33.4%
  MCV: 58.4 fL
  Mono: 3.8%
  Neu: 8.8%
  PT: 12.1 s
  Plat: 105.4 x10_4/uL
  RBC: 786.4 x10_4/ul
  Ret: 2.8%
  WBC: 95.2 x10_2/uL
  KIDNEY_L: 1.3 g
  KIDNEY_R: 1.3 g
  KIDNEY_TOTAL: 2.6 g
  LIVER: 15.2 g
  A/G: 1.8
  ALP: 612.6 IU/L
  ALT: 27 IU/L
  AST: 59.8 IU/L
  BUN: 20.6 mg/dL
  CRE: 0.7 mg/dL
  Ca: 10.8 mg/dL
  Cl: 106.8 meq/L
  DBIL: 0.012 mg/dL
  GLC: 169.4 mg/dL
  IP: 6.7 mg/dL
  K: 4.5 meq/L
  LDH: 84 IU/L
  Na: 139.8 meq/L
  PL: 161.6 mg/dL
  RALB: 4 g/dL
  TBIL: 0.2 mg/dL
  TC: 76.6 mg/dL
  TG: 153.8 mg/dL
  TP: 6.3 g/dL
  gamma-GTP: 1.6 IU/L
[5]
  TERMINAL_BW: 207 g
  APTT: 15.4 s
  Bas: 0%
  Eos: 0%
  Fbg: 238.6 mg/dL
  Hb: 13.5 g/dL
  Ht: 40.4%
  Lym: 75.2%
  MCH: 21.4 pg
  MCHC: 33.3%
  MCV: 64.3 fL
  Mono: 7.4%
  Neu: 17.4%
  PT: 12.4 s
  Plat: 93.7 x10_4/uL
  RBC: 629.4 x10_4/ul
  Ret: 6.6%
  WBC: 124.3 x10_2/uL
  KIDNEY_L: 0.9 g
  KIDNEY_R: 0.9 g
  KIDNEY_TOTAL: 1.8 g
  LIVER: 10 g
  A/G: 2
  ALP: 1039.8 IU/L
  ALT: 30.4 IU/L
  AST: 54.4 IU/L
  BUN: 20 mg/dL
  CRE: 0.5 mg/dL
  Ca: 11.2 mg/dL
  Cl: 105.8 meq/L
  DBIL: 0 mg/dL
  GLC: 185.4 mg/dL
  IP: 7.1 mg/dL
  K: 4.7 meq/L
  LDH: 81.2 IU/L
  Na: 138 meq/L
  PL: 161.4 mg/dL
  RALB: 3.9 g/dL
  TBIL: 0.3 mg/dL
  TC: 97.6 mg/dL
  TG: 87.4 mg/dL
  TP: 5.9 g/dL
  gamma-GTP: 2 IU/L
[6]
  TERMINAL_BW: 233.5 g
  APTT: 15.3 s
  Bas: 0%
  Eos: 0.2%
  Fbg: 252.2 mg/dL
  Hb: 13.9 g/dL
  Ht: 41.5%
  Lym: 86.6%
  MCH: 21 pg
  MCHC: 33.4%
  MCV: 62.8 fL
  Mono: 6.6%
  Neu: 6.6%
  PT: 12.6 s
  Plat: 117.2 x10_4/uL
  RBC: 662.4 x10_4/ul
  Ret: 4%
  WBC: 116 x10_2/uL
  KIDNEY_L: 1 g
  KIDNEY_R: 1 g
  KIDNEY_TOTAL: 1.9 g
  LIVER: 12.4 g
  A/G: 1.8
  ALP: 740.8 IU/L
  ALT: 27.6 IU/L
  AST: 48.8 IU/L
  BUN: 20.4 mg/dL
  CRE: 0.5 mg/dL
  Ca: 11.5 mg/dL
  Cl: 105.6 meq/L
  DBIL: 0.008 mg/dL
  GLC: 169.4 mg/dL
  IP: 7.2 mg/dL
  K: 4.9 meq/L
  LDH: 83.8 IU/L
  Na: 139.6 meq/L
  PL: 174.2 mg/dL
  RALB: 4.1 g/dL
  TBIL: 0.3 mg/dL
  TC: 108 mg/dL
  TG: 116.6 mg/dL
  TP: 6.4 g/dL
  gamma-GTP: 1.4 IU/L
[7]
  TERMINAL_BW: 245.3 g
  APTT: 16.4 s
  Bas: 0%
  Eos: 0.4%
  Fbg: 194.6 mg/dL
  Hb: 14.7 g/dL
  Ht: 43.7%
  Lym: 90.6%
  MCH: 20.6 pg
  MCHC: 33.7%
  MCV: 61.1 fL
  Mono: 3.8%
  Neu: 5.2%
  PT: 14 s
  Plat: 101.1 x10_4/uL
  RBC: 715.2 x10_4/ul
  Ret: 1.3%
  WBC: 120.9 x10_2/uL
  KIDNEY_L: 0.9 g
  KIDNEY_R: 0.9 g
  KIDNEY_TOTAL: 1.7 g
  LIVER: 10.5 g
  A/G: 1.7
  ALP: 568 IU/L
  ALT: 27 IU/L
  AST: 52.8 IU/L
  BUN: 26.6 mg/dL
  CRE: 0.7 mg/dL
  Ca: 11.1 mg/dL
  Cl: 106.4 meq/L
  DBIL: 0.006 mg/dL
  GLC: 178.6 mg/dL
  IP: 6.3 mg/dL
  K: 4.3 meq/L
  LDH: 68.4 IU/L
  Na: 141 meq/L
  PL: 152.6 mg/dL
  RALB: 4.2 g/dL
  TBIL: 0.2 mg/dL
  TC: 96.4 mg/dL
  TG: 59.8 mg/dL
  TP: 6.7 g/dL
  gamma-GTP: 2.2 IU/L
[8]
  TERMINAL_BW: 243.1 g
  APTT: 15.2 s
  Bas: 0%
  Eos: 1.6%
  Fbg: 176.8 mg/dL
  Hb: 16.3 g/dL
  Ht: 48.4%
  Lym: 85.4%
  MCH: 19.3 pg
  MCHC: 33.7%
  MCV: 57.5 fL
  Mono: 4.8%
  Neu: 8.2%
  PT: 14.8 s
  Plat: 83 x10_4/uL
  RBC: 843.2 x10_4/ul
  Ret: 0.7%
  WBC: 61.3 x10_2/uL
  KIDNEY_L: 0.8 g
  KIDNEY_R: 0.8 g
  KIDNEY_TOTAL: 1.7 g
  LIVER: 7.9 g
  A/G: 2
  ALP: 628 IU/L
  ALT: 35.4 IU/L
  AST: 63.4 IU/L
  BUN: 25.8 mg/dL
  CRE: 0.7 mg/dL
  Ca: 10.5 mg/dL
  Cl: 108.6 meq/L
  DBIL: 0.056 mg/dL
  GLC: 161 mg/dL
  IP: 5.7 mg/dL
  K: 4.2 meq/L
  LDH: 62.6 IU/L
  Na: 141.2 meq/L
  PL: 150.6 mg/dL
  RALB: 4.3 g/dL
  TBIL: 0.2 mg/dL
  TC: 100.8 mg/dL
  TG: 44.6 mg/dL
  TP: 6.5 g/dL
  gamma-GTP: 3.2 IU/L
